Data reported in patent publication US8389549B2, “Substituted pyridines useful for treating pain” (Purdue Pharma L.P., priority 2007, dated 2013).
Converted amounts (≈) assume the structure as drawn. Like-named read-outs stand apart in the source and are kept apart here.

Columns and labels:
human TRPV1 [1] = molecular target: T1, human TRPV1 (Homo sapiens, UniProt Q8NER1); experiment: pH-based assay (Fura-2 AM Ca2+ response to low pH, TRPV1/CHO cells)
Protocol: For this Protocol, a Chinese Hamster Ovary cell line (CHO) that constitutively expresses human TRPV1 is used (TRPV1/CHO cells).
TRPV1/CHO cells are seeded in the 96-well clear-bottom black-wall plate (Nunc) at densities of 1-2×10^4 cells/well and grown in 100 μL of culture medium (alpha-MEM supplemented with 10% FBS, 20 mM HEPES, 1 mg/mL geneticin and 1% antibiotic-antimycotic mixed stock solution) for 1-2 days before the experiment.
(2) The 96-well plate is incubated at 37° C. for 45 min.
(3) The loading buffer is removed from each well. […] The wells are then refilled with 80 μL of measuring buffer.
(4) After an incubation at 4° C. for 15 min, the 96-well plate is transferred to FDSS-3000 (Hamamatsu photonics, Japan).
(5) The Fura-2 fluorescent intensity is monitored at a wavelength of 340 nm and at 380 nm, respectively, at a rate of 0.5 Hz for a total of 240 seconds. After 16 time points (32 sec) of baseline detection, 20 μL of agonist solution is added to each well. […]
(6) Fluorescence intensity ratio refers to the fluorescence intensity at 340 nm over the fluorescence intensity at 380 nm at a particular time point. […]
(7) Maximal signal ratios from each well are calculated as output data using the FDSS-3000 analysis program. Data are analyzed using Excel (Microsoft) and XLfit (idbs) software. […]
(6) Fura-2 fluorescent intensity is monitored as described in 2.2.(5) of this Protocol. […]

human TRPV1 [2] = molecular target: T1, human TRPV1; experiment: Capsaicin-based assay (Fluo-4 calcium fluorescence, TRPV1/CHO cells); type: cell-based; design: expressed in transfected cells
Protocol: One day prior to assay, TRPV1/CHO cells are seeded in 96-well clear-bottom black plates (20,000 cells/well) in growth media. On the day of the experiment, the cells are washed with 0.2 ml 1× Hank's Balanced Salt Solution (Life Technologies) containing 1.6 mM CaCl2 and 20 mM HEPES, pH 7.4 (“wash buffer”). Subsequently, the cells are loaded by incubation in 0.1 ml of wash buffer containing Fluo-4 at 3 µM final concentration. After 1 hour, the cells are washed twice with 0.2 ml wash buffer and resuspended in 0.1 ml wash buffer. The plates are then transferred to a Fluorescence Imaging Plate Reader (Molecular Devices). Fluorescence intensity is monitored for 15 seconds to establish a baseline. Subsequently, test compounds diluted in assay buffer (1× Hank's Balanced Salt Solution containing 1 mM CaCl2 and 20 mM HEPES, pH 7.4) containing 1% DMSO are added to the cell plate and fluorescence is monitored for 2 minutes. […] Human TRPV1 is then activated by the addition of 50 μL capsaicin (100 nM final concentration) and plates incubated for an additional 3 min. Data are collected over the entire time course and analyzed using Excel and the curve-fitting Formula GraphPad Prism.

[3] = Solubility of diol compounds in aqueous solution; type: physicochemical
[4] = TRPV1/CHO cells, capsaicin 100 nM final concentration, read-out: Potency, IC50(nM) Capsaicin assay
[5] = pH 1.2, read-out: Solubility (μM) pH: 1.2
[6] = pH 6.8, aqueous buffer, read-out: Solubility (μM) pH: 6.8

T1 sequence (Q8NER1 whole entry): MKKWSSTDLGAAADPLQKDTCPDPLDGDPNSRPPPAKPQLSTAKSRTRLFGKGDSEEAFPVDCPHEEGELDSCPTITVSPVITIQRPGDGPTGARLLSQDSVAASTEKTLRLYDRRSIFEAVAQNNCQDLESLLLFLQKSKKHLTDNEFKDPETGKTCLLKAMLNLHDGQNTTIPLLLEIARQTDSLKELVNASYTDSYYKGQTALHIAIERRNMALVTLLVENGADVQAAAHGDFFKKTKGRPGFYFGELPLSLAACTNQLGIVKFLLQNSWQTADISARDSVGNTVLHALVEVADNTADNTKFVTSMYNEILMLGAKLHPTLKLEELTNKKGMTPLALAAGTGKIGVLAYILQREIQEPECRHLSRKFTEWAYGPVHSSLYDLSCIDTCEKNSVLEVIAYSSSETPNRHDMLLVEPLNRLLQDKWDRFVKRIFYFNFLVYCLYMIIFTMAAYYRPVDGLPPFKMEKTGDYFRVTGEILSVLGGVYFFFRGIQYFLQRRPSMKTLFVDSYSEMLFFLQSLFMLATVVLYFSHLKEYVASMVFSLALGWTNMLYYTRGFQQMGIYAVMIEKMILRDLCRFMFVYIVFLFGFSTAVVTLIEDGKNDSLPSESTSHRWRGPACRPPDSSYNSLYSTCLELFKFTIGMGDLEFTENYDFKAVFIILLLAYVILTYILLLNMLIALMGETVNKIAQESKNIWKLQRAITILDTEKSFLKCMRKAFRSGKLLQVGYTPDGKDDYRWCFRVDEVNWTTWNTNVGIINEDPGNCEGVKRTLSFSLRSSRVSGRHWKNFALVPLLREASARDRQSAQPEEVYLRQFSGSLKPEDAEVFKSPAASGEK

IC50 (human TRPV1 [1]) [nM]	IC50 (human TRPV1 [2]) [nM]	IC50 (human TRPV1 [2]; [4]) [nM]	solubility [3, 5] [µM]	solubility [3, 6] [µM]	SMILES
–	–	109 ± 25.5	> 50	21 (≈ 8.95 µg/mL)	O=C(Nc1ccc(C(F)(F)F)cn1)C1=CCN(c2ncc([C@@H](O)CO)cc2F)CC1 [Compound F2]
–	–	35.6 ± 5.1	46 (≈ 19.9 µg/mL)	1 (≈ 0.432 µg/mL)	O=C(Nc1nc2ccc(F)cc2s1)C1=CCN(c2ncc([C@H](O)CO)cc2F)CC1 [Compound I5, (S)-1-(5-(1,2-dihydroxyethyl)-3-fluoropyridin-2-yl)-N-(6-fluorobenzo[d]thiazol-2-yl)-1,2,3,6-tetrahydropyridine-4-carboxamide]

More lines, now with the values behind:

SMILES	IC50 (human TRPV1 [1]) [nM]	IC50 (human TRPV1 [2]) [nM]	IC50 (human TRPV1 [2]; [4]) [nM]	solubility [3, 5] [µM]	solubility [3, 6] [µM]
O=C(Nc1ccc(C(F)(F)F)cc1)C1=CCN(c2ncc([C@@H](O)CO)cc2F)CC1 [Compound B14]	14.7 ± 1.01	29.4 ± 6.3	–	–	–
O=C(Nc1ccc(C(F)(F)F)cc1)C1=CCN(c2ncc([C@H](O)CO)cc2F)CC1 [Compound A14]	9.5 ± 2.5	23.8 ± 6.2	–	> 50	19 (≈ 8.08 µg/mL)
O=C(Nc1ccc(C(F)(F)F)cn1)C1=CCN(c2ncc([C@H](O)CO)cc2F)CC1 [Compound E2]	–	–	45.9 ± 4.2	> 50	25 (≈ 10.7 µg/mL)
